Data from ChEMBL document CHEMBL2163318, “Phenylalanine derivatives as GPR142 agonists for the treatment of type II diabetes” (Bioorg Med Chem Lett, 2012).
The source made the active and inactive calls. The rule behind the calls is not given here.

Assays:
[1] = Metabolic stability of rat microsomes assessed as compound turnover at 1 uM after 30 mins by LC-MS analysis; assay type: ADME, Microsome; conditions: read-out: Drug metabolism
[2] = biological target: T1, Probable G-protein coupled receptor 142 (Homo sapiens) (UniProt Q7Z601); assay: Agonist activity at human GPR142 expressed in HEK293 cells assessed as inositol phosphate accumulation after 1 hr by scintillation counting in presence of 100% serum; assay type: functional, cell-based
T1 sequence (whole entry): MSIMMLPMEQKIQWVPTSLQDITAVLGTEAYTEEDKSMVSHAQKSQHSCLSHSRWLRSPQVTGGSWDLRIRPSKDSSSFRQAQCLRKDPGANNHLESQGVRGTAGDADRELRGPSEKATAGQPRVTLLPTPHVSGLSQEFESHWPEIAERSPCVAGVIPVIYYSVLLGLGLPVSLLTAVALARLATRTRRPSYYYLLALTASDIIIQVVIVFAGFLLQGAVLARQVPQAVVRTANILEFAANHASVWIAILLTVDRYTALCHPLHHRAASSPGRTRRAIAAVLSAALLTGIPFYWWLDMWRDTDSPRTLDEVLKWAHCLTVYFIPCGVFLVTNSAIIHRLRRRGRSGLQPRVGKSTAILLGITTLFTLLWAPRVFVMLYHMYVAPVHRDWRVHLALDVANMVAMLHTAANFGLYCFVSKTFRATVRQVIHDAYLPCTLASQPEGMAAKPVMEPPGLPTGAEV

[3] = Metabolic stability of human microsomes assessed as compound turnover at 1 uM after 30 mins by LC-MS analysis; assay type: ADME, Microsome; conditions: read-out: Drug metabolism
[4] = biological target: T2, Probable G-protein coupled receptor 142 (Homo sapiens, UniProt Q7Z601); assay: Agonist activity at human GPR142 expressed in HEK293 cells assessed as inositol phosphate accumulation after 1 hr by scintillation counting; assay type: functional, cell-based
T2 sequence (Q7Z601 whole entry): T1 sequence (whole entry)

[5] = biological target: T1, Probable G-protein coupled receptor 142 (Homo sapiens); assay: Agonist activity at human GPR142 expressed in HEK293 cells assessed as inositol phosphate accumulation at 10 uM after 1 hr by scintillation counting; assay type: functional, cell-based
[6] = Clearance in rat at 0.5 mg/kg, iv; assay type: ADME, organism-based; set-up: dose 0.5 mg/kg, route intravenous; conditions: in vivo
[7] = Oral bioavailability in rat at 2 mg/kg; assay type: ADME, organism-based; conditions: in vivo

O=C(Nc1cc(-c2ccncc2)c[nH]c1=O)[C@H](Cc1ccccc1)NCc1cscn1
metabolised at 0.5 h, 1 µM [1]: 99%
Activity [2]: Active
metabolised at 0.5 h, 1 µM [3]: 68%
EC50 [4]: 930 nM

O=C(Nc1cc(-c2ccncc2)c[nH]c1=O)[C@H](Cc1ccccc1)NCC1CCS(=O)(=O)CC1
Emax [5]: 91%
metabolised at 0.5 h, 1 µM [1]: 58%
metabolised at 0.5 h, 1 µM [3]: 21%
EC50 [4]: 20000 nM

O=C(Nc1cc(-c2ccncc2)c[nH]c1=O)[C@H](Cc1ccccc1)NC[C@H]1CCCO1
Emax [5]: 78%
metabolised at 0.5 h, 1 µM [1]: 98%
metabolised at 0.5 h, 1 µM [3]: 83%
EC50 [4]: 390 nM

C[C@@H](N[C@@H](Cc1ccccc1)C(=O)Nc1cc(-c2ccncc2)c[nH]c1=O)c1ccccn1
Emax [5]: 60%
metabolised at 0.5 h, 1 µM [1]: 95%
metabolised at 0.5 h, 1 µM [3]: 95%
EC50 [4]: 6000 nM

O=C1CC[C@H](CN[C@@H](Cc2ccccc2)C(=O)Nc2cc(-c3ccncc3)c[nH]c2=O)N1
Emax [5]: 78%
metabolised at 0.5 h, 1 µM [1]: 67%
metabolised at 0.5 h, 1 µM [3]: 19%
EC50 [4]: 2230 nM

Cc1nc(C2(N[C@@H](Cc3ccccc3)C(=O)Nc3cc(-c4ccncc4)c[nH]c3=O)CC2)cs1
Emax [5]: 106%
metabolised at 0.5 h, 1 µM [1]: 74%
metabolised at 0.5 h, 1 µM [3]: 64%
EC50 [4]: 200 nM

O=C(Nc1cc(-c2ccncc2)c[nH]c1=O)[C@H](Cc1ccccc1)NC1(c2ncccn2)CC1
Emax [5]: 114%
metabolised at 0.5 h, 1 µM [1]: 67%
metabolised at 0.5 h, 1 µM [3]: 21%
EC50 [4]: 99 nM

Cn1ccc(CN[C@@H](Cc2ccccc2)C(=O)Nc2cc(-c3ccncc3)c[nH]c2=O)n1
Emax [5]: 92%
metabolised at 0.5 h, 1 µM [1]: 100%
metabolised at 0.5 h, 1 µM [3]: 90%
EC50 [4]: 210 nM

CC(C)(N[C@@H](Cc1ccccc1)C(=O)Nc1cc(-c2ccncc2)c[nH]c1=O)c1ccccn1
Emax [5]: 57%
metabolised at 0.5 h, 1 µM [1]: 100%
metabolised at 0.5 h, 1 µM [3]: > 95%
EC50 [4]: 9450 nM

Cn1cncc1-c1nnc(NC(=O)[C@H](Cc2ccccc2)NCc2cscn2)s1
Emax [5]: 86%
metabolised at 0.5 h, 1 µM [1]: 35%
clearance [6]: 28.3 mL/min/kg
metabolised at 0.5 h, 1 µM [3]: 19%
bioavailability [7]: 19%
EC50 [4]: 180 nM

O=C(Nc1cc(-c2ccncc2)c[nH]c1=O)[C@H](Cc1ccccc1)NCc1ccccn1
Emax [5]: 155%
metabolised at 0.5 h, 1 µM [1]: 95%
metabolised at 0.5 h, 1 µM [3]: 95%
EC50 [4]: 95 nM

O=C(Nc1cc(-c2ccncc2)c[nH]c1=O)[C@H](Cc1ccccc1)NCCc1ccccn1
Emax [5]: 76%
metabolised at 0.5 h, 1 µM [1]: 100%
metabolised at 0.5 h, 1 µM [3]: 100%
EC50 [4]: 1320 nM

C[C@H](N[C@@H](Cc1ccccc1)C(=O)Nc1cc(-c2ccncc2)c[nH]c1=O)c1ccccn1
Emax [5]: 107%
metabolised at 0.5 h, 1 µM [1]: 99%
metabolised at 0.5 h, 1 µM [3]: 100%
EC50 [4]: 220 nM

O=C(Nc1nnc(-c2cncs2)s1)[C@H](Cc1ccccc1)NCc1cscn1
Emax [5]: 74%
metabolised at 0.5 h, 1 µM [1]: 57%
clearance [6]: 40 mL/min/kg
metabolised at 0.5 h, 1 µM [3]: 29%
bioavailability [7]: 32%
EC50 [4]: 390 nM

O=C(Nc1cc(-c2ccncc2)c[nH]c1=O)[C@H](Cc1ccccc1)NCCC1CCOCC1
Emax [5]: 84%
metabolised at 0.5 h, 1 µM [1]: 80%
metabolised at 0.5 h, 1 µM [3]: 66%
EC50 [4]: 1060 nM

Cc1cc(CN[C@@H](Cc2ccccc2)C(=O)Nc2cc(-c3ccncc3)c[nH]c2=O)no1
Emax [5]: 93%
metabolised at 0.5 h, 1 µM [1]: 95%
metabolised at 0.5 h, 1 µM [3]: 78%
EC50 [4]: 2200 nM

CCC(N[C@@H](Cc1ccccc1)C(=O)Nc1cc(-c2ccncc2)c[nH]c1=O)c1ccccn1 (mixture of isomers)
Emax [5]: 81%
metabolised at 0.5 h, 1 µM [1]: 95%
metabolised at 0.5 h, 1 µM [3]: 85%
EC50 [4]: 730 nM

O=C(Nc1cc(-c2ccncc2)c[nH]c1=O)[C@H](Cc1ccccc1)NCc1c[nH]cn1
Emax [5]: 107%
metabolised at 0.5 h, 1 µM [1]: 96%
metabolised at 0.5 h, 1 µM [3]: 60%
EC50 [4]: 110 nM

O=C(Nc1cc(-c2ccncc2)c[nH]c1=O)[C@H](Cc1ccccc1)NCc1ncccn1
Emax [5]: 95%
metabolised at 0.5 h, 1 µM [1]: 99%
metabolised at 0.5 h, 1 µM [3]: 90%
EC50 [4]: 440 nM
